Reference: PubChem BioAssay (NCI)
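Each compound was tested at five concentrations against cells in 96-well plates for 48 hours. The concentration for full growth arrest is given as TGI.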

Columns and labels:
Assay in all cases: NCI anticancer screen, dose series, 48 h
SNB-19 CNS = test system: SNB-19 CNS
NCI-H23 lung = test system: NCI-H23 lung
HCT-116 colon = test system: HCT-116 colon
MALME-3M melanoma = test system: MALME-3M melanoma
HCC-2998 colon = test system: HCC-2998 colon
CAKI-1 renal = test system: CAKI-1 renal
SK-OV-3 ovarian = test system: SK-OV-3 ovarian
U251 CNS = test system: U251 CNS
NCI/ADR-RES ovarian = test system: NCI/ADR-RES ovarian
MDA-MB-231 breast = test system: MDA-MB-231 breast
TK-10 renal = test system: TK-10 renal
HOP-62 NSCLC = test system: HOP-62 NSCLC
HT29 colon = test system: HT29 colon
MDA-N = test system: MDA-N
SK-MEL-2 melanoma = test system: SK-MEL-2 melanoma
KM12 colon = test system: KM12 colon
NCI-H522 lung = test system: NCI-H522 lung
HOP-92 NSCLC = test system: HOP-92 NSCLC
RPMI-8226 leukemia = test system: RPMI-8226 leukemia
DLD-1 colon = test system: DLD-1 colon

Compound | TGI (SNB-19 CNS) [µM] | TGI (NCI-H23 lung) [µM] | TGI (HCT-116 colon) [µM] | TGI (MALME-3M melanoma) [µM] | TGI (HCC-2998 colon) [µM] | TGI (CAKI-1 renal) [µM] | TGI (SK-OV-3 ovarian) [µM] | TGI (U251 CNS) [µM] | TGI (NCI/ADR-RES ovarian) [µM] | TGI (MDA-MB-231 breast) [µM] | TGI (TK-10 renal) [µM] | TGI (HOP-62 NSCLC) [µM] | TGI (HT29 colon) [µM] | TGI (MDA-N) [µM] | TGI (SK-MEL-2 melanoma) [µM] | TGI (KM12 colon) [µM] | TGI (NCI-H522 lung) [µM] | TGI (HOP-92 NSCLC) [µM] | TGI (RPMI-8226 leukemia) [µM] | TGI (DLD-1 colon) [µM]
Cn1c(=O)n2n(c1=O)C(S(=O)(=O)c1ccccc1)C2 (stereo not drawn) | > 100 | > 100 | > 100 | > 100 | > 100 | > 100 | > 100 | > 100 | > 100 | > 100 | > 100 | > 100 | > 100 | > 100 | > 100 | > 100 | > 100 | > 100 | > 100 | 
COC(=O)c1ccc(NC(=O)O/N=C(\Cl)C(C)C)cc1 | 31.8 | 39.3 | 17.2 | 3.48 | 28.1 | 3.08 | 31.7 | 30.9 | 16.7 | 15.6 | 10.3 | 32.9 | 29.4 | 22.8 | 31.5 | 30.2 | 1.74 | 3.57 | 4.47 | 
CN=c1c2c(c3[nH]c4ccccc4c4cnc1c34)NCCC2=O | > 10 | > 10 | > 10 | > 10 | > 10 | > 10 | > 10 | > 10 | > 10 | > 10 | > 10 | > 10 | > 10 | > 10 | > 10 | > 10 | > 10 | > 10 | > 10 | 
CC1(C)CCc2c(c(N=Nc3ccc(S(N)(=O)=O)cc3)c3ccccc3c2O)O1 | 39 | 24.5 | 34.7 | 15.8 | 15.9 | 62.1 | 16.2 | 20.9 | 59.9 | 8.77 | 38 | 20.7 | 38.1 | 9.72 | 83.8 | 66.4 | 33.7 | 37.5 | > 100 | 
C=C1C(=O)O[C@@H]2[C@@H]3O[C@@H](C[C@@H]13)[C@](C)(O)CC/C=C(\C)CCC[C@@H]2C | 29.8 | 28 | 21.2 | 26.8 | 32.7 | 28.6 | 34 | 22.8 | 38.5 | 37.5 | 27.7 | 30.5 | > 100 | 18.3 | 27.7 | 43.1 | 20.1 | 29.3 | 20.6 | 
CC(=O)OC[C@]1(C)CCCC2(C)C1CCC1C=C(C)[C@H]3CCC12C3 (stereo partly drawn) | > 100 | > 100 | > 100 | > 100 | > 100 | > 100 | > 100 | > 100 |  |  | > 100 | > 100 | > 100 |  |  | > 100 | 75 |  | > 100 | > 100
NC(N)=NS(=O)(=O)c1ccc(NNc2c3ccccc3nc3c(C(=O)Nc4ccc(S(=O)(=O)N=C(N)N)cc4)cccc23)cc1 | > 100 | > 100 | > 100 | 79.1 | > 100 | > 100 | > 100 | > 100 | > 100 | > 100 | > 100 | > 100 | > 100 | > 100 | > 100 | > 100 | 67.1 | > 100 | > 100 | 
O=C1c2ccccc2CN1c1ccc(OCCN2CCCCC2)cc1 | > 10 | > 10 | > 10 | > 10 | > 10 | > 10 | > 10 | > 10 | > 10 | > 10 | > 10 | > 10 | > 10 | > 10 | > 10 | > 10 | > 10 | > 10 | > 10 | 
Clc1ccc(OCc2nnc(CCCCCCCCc3nnc(COc4ccc(Cl)cc4Cl)n3Nc3ccccc3)n2Nc2ccccc2)c(Cl)c1 | > 61.9 | 51 | 25.1 | 40.6 | 20.8 | 49.3 | 39.8 | 27.1 | 51.8 | 24.4 | > 75.1 | 18.2 | 35.8 | 27.7 | 24.8 | 25.6 | 24.7 | 46.3 | 16.9 | 
COC(=O)C1=CSC2(S1)C(C(=O)OC)=CSc1c2ssc1=O (stereo not drawn) | 16.1 | 5.12 | 3.16 | 6.18 | 8.82 | 10.7 | 29.7 | 3.02 | 8.35 | 4.13 | 6.13 | 17 | 3.71 | 4.92 | 5.92 | 12.8 | 3.14 | 4.27 | 4.24 | 
CC[C@@H]1C(=O)OC[C@@H]1Cc1cncn1C | > 100 | > 100 | > 100 | > 100 | > 100 | > 100 | > 100 | > 100 | > 100 | > 100 | > 100 | > 100 | > 100 | > 100 | > 100 | > 100 | > 100 | > 100 | > 100 | 
NC(=O)c1cc2ccc(O)cc2o/c1=N/NC(=O)c1ccccc1 | > 100 | > 100 | > 100 | > 100 | > 100 | > 100 | > 100 | > 100 | > 100 | > 100 | > 100 | > 100 | > 100 | > 100 | 91.8 | > 100 | > 100 | > 100 | > 100 | 
Cc1cccc(C)c1NC(=O)C(=O)CC(=O)/C=C/c1ccccc1 | > 100 | > 100 | > 100 | > 100 | > 100 | > 100 | > 100 | > 100 | > 100 | > 100 | > 100 | > 100 | > 100 | > 100 | > 100 | > 100 | > 100 | > 100 | > 100 | 
